The source of these data is ChEMBL document CHEMBL4118183, “Lipophilic methylene blue analogues enhance mitochondrial function and increase frataxin levels in a cellular model of Friedreich's ataxia” (Bioorg Med Chem, 2018).

Each structure is given as a SMILES string. pEC50: −log10 of the molar value. Calls of active or inactive are those of the source. The rule behind the calls is not given here. Bounds are passed on as bounds.

Data set [1] in a line: Increase in frataxin protein expression levels in FRDA patient derived Friedreich's ataxia lymphocytes at 50 nM after 24 to 48 hrs by ELISA relative to control. It is filed as functional, Homo sapiens, Friedreich's ataxia lymphocyte. For orientation: An ELISA detects its analyte on a solid surface through an enzyme-linked reagent.
Data set [2] relates to Friedreich's ataxia lymphocyte. The experiment in a line: Increase in frataxin protein expression levels in FRDA patient derived Friedreich's ataxia lymphocytes at 250 nM after 24 to 48 hrs by ELISA. The data set is classed as functional. The note with it: Homo sapiens.
In data set [3] the test system is Friedreich's ataxia lymphocyte. Briefly: Induction of mitochondrial biogenesis in FRDA patient derived Friedreich's ataxia lymphocytes assessed as increase in COX-1/SDH-A protein levels at 250 nM after 24 to 48 hrs by ELISA. The note with it: Homo sapiens. It is filed as functional.
Data set [4] in a line: Cytotoxicity against human Friedreich's ataxia lymphocytes assessed as cell viability by measuring live cells at 2500 nM after 48 hrs by calceinAM ester/ethidium homodimer-1 staining based flow cytometry (reference value: 89.3%). Further details: species or system Friedreich's ataxia lymphocyte. The note with it: read-out: Activity.
The species named for data set [5] is Homo sapiens. Briefly: (§1) Cytoprotective activity against BSO-treated human Friedreich's ataxia fibroblasts assessed as increase in cell viability incubated overnight followed by BSO addition measured after 48 hrs by calceinAM ester/ethidium homodimer-1 staining based flow cytometry. It is filed as functional.
Data set [6] in a line: as §1. The data set is classed as functional.
Data set [7] can be described thus: Cytotoxicity against human Friedreich's ataxia lymphocytes assessed as cell viability by measuring dead cells at 250 nM after 48 hrs by calceinAM ester/ethidium homodimer-1 staining based flow cytometry (reference value: 10.6%). The conditions noted are these: friedreich's ataxia lymphocyte, 0.25 µM.
The species entered for data set [8] is Homo sapiens. The experiment in a line: Cytoprotective activity against BSO-treated human Friedreich's ataxia fibroblasts assessed as increase in cell viability at 25 to 50 nM incubated overnight followed by BSO addition measured after 48 hrs by calceinAM ester/ethidium homodimer-1 staining based flow cytometry. The data set is classed as functional.
Data set [9] has as its system Friedreich's ataxia lymphocyte. Briefly: Increase in total ATP levels in human Friedreich's ataxia lymphocytes at 0.1 uM after 24 hrs by bioluminescence assay. The data set is classed as functional, cell-based.
A short description of data set [10]: Induction of inner mitochondrial membrane potential depolarization in human Friedreich's ataxia lymphocytes assessed as JC-1 aggregates at 2500 nM after 16 hrs by JC1-staining based flow cytometry (reference value: 83%). It is filed as functional, Friedreich's ataxia lymphocyte. On the technique in general: A flow cytometer gives signals particle by particle.

A short description of data set [11]: Induction of mitochondrial biogenesis in FRDA patient derived Friedreich's ataxia lymphocytes assessed as increase in COX-1/SDH-A protein levels at 50 nM after 24 to 48 hrs by ELISA relative to control. The data set is classed as functional, Homo sapiens, Friedreich's ataxia lymphocyte.
Data set [12] relates to Friedreich's ataxia lymphocyte. Briefly: Cytoprotective activity against rotenone-induced cytotoxicity in human Friedreich's ataxia lymphocytes assessed as increase in cell viability at 250 to 2500 nM preincubated for 12 hrs followed by complex 1 inhibitor rotenone addition measured after 16 hrs by calceinAM ester/ethidium homodimer-1 staining based flow cytometry. The data set is classed as functional.

In data set [13] the test system is Friedreich's ataxia lymphocyte. The experiment in a line: Inhibition of DEM-induced ROS production in human Friedreich's ataxia lymphocytes incubated for 16 hrs followed by DEM treatment for 80 mins by DCFH-DA dye based flow cytometry. The data set is classed as functional, cell-based.
Data set [14] in a line: Cytotoxicity against human Friedreich's ataxia lymphocytes assessed as cell viability by measuring live cells at 250 nM after 24 hrs by calceinAM ester/ethidium homodimer-1 staining based flow cytometry (reference value: 88.2%). Further details: species or system Friedreich's ataxia lymphocyte. The note with it: read-out: Activity.
Data set [15] can be described thus: Induction of inner mitochondrial membrane potential depolarization in human Friedreich's ataxia lymphocytes assessed as JC-1 aggregates at 250 nM after 16 hrs by JC1-staining based flow cytometry (reference value: 83%). The data set is classed as functional, Friedreich's ataxia lymphocyte.
Data set [16] can be described thus: Cytotoxicity against human Friedreich's ataxia lymphocytes assessed as cell viability by measuring live cells at 250 nM after 48 hrs by calceinAM ester/ethidium homodimer-1 staining based flow cytometry (reference value: 89.3%). Set-up: species or system Friedreich's ataxia lymphocyte. The conditions noted are these: read-out: Activity.
The test system of data set [17] is Friedreich's ataxia lymphocyte. The experiment in a line: Increase in total ATP levels in human Friedreich's ataxia lymphocytes at 0.5 to 2.5 uM after 24 hrs by bioluminescence assay. The data set is classed as functional, cell-based.
Data set [18] can be described thus: Cytotoxicity against human Friedreich's ataxia lymphocytes assessed as cell viability by measuring dead cells at 250 nM after 24 hrs by calceinAM ester/ethidium homodimer-1 staining based flow cytometry (reference value: 11.2%). The conditions noted are these: friedreich's ataxia lymphocyte, 0.25 µM.
Data set [19] in a line: Cytotoxicity against human Friedreich's ataxia lymphocytes assessed as cell viability by measuring live cells at 2500 nM after 24 hrs by calceinAM ester/ethidium homodimer-1 staining based flow cytometry (reference value: 88.2%). Set-up: species or system Friedreich's ataxia lymphocyte. The conditions noted are these: read-out: Activity.
Data set [20] can be described thus: Cytotoxicity against human Friedreich's ataxia lymphocytes assessed as cell viability by measuring dead cells at 2500 nM after 24 hrs by calceinAM ester/ethidium homodimer-1 staining based flow cytometry (reference value: 11.2%). The conditions noted are these: friedreich's ataxia lymphocyte, 2.5 µM.
Data set [21] can be described thus: Cytotoxicity against human Friedreich's ataxia lymphocytes assessed as cell viability by measuring dead cells at 2500 nM after 48 hrs by calceinAM ester/ethidium homodimer-1 staining based flow cytometry (reference value: 10.6%). The note with it: friedreich's ataxia lymphocyte, 2.5 µM.
The nature of data set [22]: Induction of inner mitochondrial membrane potential depolarization in human Friedreich's ataxia lymphocytes assessed as JC-1 monomers at 2500 nM after 16 hrs by JC1-staining based flow cytometry (reference value: 17.3%). It is filed as functional, Friedreich's ataxia lymphocyte.
Data set [23] in a line: Induction of inner mitochondrial membrane potential depolarization in human Friedreich's ataxia lymphocytes assessed as JC-1 monomers at 250 nM after 16 hrs by JC1-staining based flow cytometry (reference value: 17.3%). It is filed as functional, Friedreich's ataxia lymphocyte.
Data set [24] concerns Friedreich's ataxia lymphocyte. Briefly: Increase in total ATP levels in human Friedreich's ataxia lymphocytes at 2.5 uM after 24 hrs by bioluminescence assay. It is filed as functional, cell-based.
Data set [25] deals with Friedreich's ataxia lymphocyte. Briefly: Increase in total ATP levels in human Friedreich's ataxia lymphocytes at 0.1 to 0.5 uM after 24 hrs by bioluminescence assay. It is filed as functional, cell-based.
Data set [26] concerns Friedreich's ataxia lymphocyte. The experiment in a line: Restoration of total aconitase activity in FRDA patient derived Friedreich's ataxia lymphocytes at 50 to 250 nM after 5 days by colorimetric assay. The data set is classed as functional, cell-based. The note with it: Homo sapiens.
The species entered for data set [27] is Mus musculus. The experiment in a line: Substrate activity at NADH-ubiquinone oxidoreductase in mouse liver mitochondrial membrane fractions assessed as induction of electron flow from complex-1 by measuring NADH oxidation at 5 uM after 5 mins in presence of complex 1 blocker rotenone at 0.1 uM using NADH and coenzyme Q1. It is filed as cell membranes.

As to `CCCCCCCCCCCCCCCc1cc2nc3ccc(N(C)C)cc3sc-2cc1=[N+](C)C.[I-]`, the Activity entry was “>=10%” in data set [1]; “Dose-dependent effect” in data set [5]; 14.5% in data set [7]; 73% in data set [10]; “>=15%” in [11]; 86.2% in data set [15]. Also, the Activity in data set [18] is recorded as 10.3%; in data set [20], 21.4%; in data set [21], 31.2%; in data set [22] it was 28.4%; in [23], 14.2%. In addition, the result in [2], in data set [3] and in data set [17] was inactive. Moreover, the viability at 48 h, 2.5 µM in data set [4] was 68.7%. Also, in data set [6], the pEC50 (usually the negative decadic logarithm of the EC50, by convention in mol/L) is 7.51. Moreover, the outcome in [8], in data set [9] and in data set [12] was Active. Further, the inhibition entry in data set [13] was “Dose-dependent effect”. In addition, in data set [14], the viability at 24 h, 0.25 µM was 89.4%. Further, the viability at 48 h, 0.25 µM in data set [16] was 85.4%. Moreover, the viability at 24 h, 2.5 µM in data set [19] was 78.2%.

As to `CCCCCCCCCCCCCCCCc1cc2nc3ccc(N(C)C)cc3sc-2cc1=[N+](C)C.[I-]`, the Activity result was “>=10%” in data set [1]; “Dose-dependent effect” in data set [5]; 10.5% in data set [7]; 77% in [10]; “>=15%” in [11]; 82.1% in [15]. Also, the Activity in data set [18] was 8.4%; in data set [20], 13%; in data set [21], 18.6%; in data set [22] it was 23.3%; in data set [23] it was 18.2%. Moreover, the result in data set [2], in [3] and in data set [24] was inactive. In addition, the viability at 48 h, 2.5 µM in data set [4] was 81.2%. The negative logarithm of the EC50 (pEC50) in data set [6] was 7.54. For the same compound, the outcome in data set [25], in data set [8], in data set [12], in data set [26] and in [27] was Active. In data set [13], the inhibition entry was “Dose-dependent effect”. Besides, in [14], the viability at 24 h, 0.25 µM is 91.4%. The viability at 48 h, 0.25 µM in data set [16] was 89.4%. Besides, the viability at 24 h, 2.5 µM in data set [19] was 87%.
